Reference: patent publication US20190030039A1, “PREVENTION OF SSRI-INDUCED GASTROINTESTINAL DYSFUNCTION WITH A 5-HT4 RECEPTOR ANTAGONIST” (The Trustees of Columbia University in the City of New York, priority 2016, published 2019)

What was measured:
[1] = tested on: mice; experiment: Sucrose preference test, measurement of depression; type: in vivo, mouse; conditions: FIG. 4
Method: FIG. 4 is a bar graph showing results from the sucrose preference test, a measurement of depression in mice. Maternal dams were administered either water (control), Fluoxetine (SSRI), or both Fluoxetine and Piboserod (SSRI+Pibo) from E1 through weaning from breastfeeding. Pups were thus exposed to aforementioned medications during gestation and breastfeeding. Once pups were weaned, at P21, they were not given any medications. The pups were evaluated at 6-8 weeks of age to rule out acute drug effects. For the sucrose preference test, mice were trained for 2 days to drink diluted sucrose and water from serological pipettes with sippers attached and testing was done on day 3. The volumes of sucrose and water consumed overnight were recorded. A reduced preference for sucrose solution over plain water represents anhedonia.
(§1) In the present invention, the serotonin-4 receptor (5-HT4R) has been identified as a critical player in SERT modulation, ENS and CNS development and GI function. […] (FIGS. 1-2). […] Administration of a 5-HT4R antagonist during neurodevelopment thus corrects the long-lasting gastrointestinal motility and behavioral defects caused by developmental exposure to SSRls.

[2] = tested on: mice; experiment: Novelty-suppressed feeding (NSF) test, measurement of anxiety; type: in vivo, mouse; conditions: FIGS. 3A-3D
Method: FIGS. 3A-3D are a series of bar graphs showing results from the novelty-suppressed feeding (NSF) test, a measurement of anxiety. Maternal dams were administered either water (control), Fluoxetine (SSRI), or both Fluoxetine and Piboserod (SSRI+Pibo) from E1 through weaning from breastfeeding. Pups were thus exposed to aforementioned medications during gestation and breastfeeding. Once pups were weaned, at P21, they were not given any medications. The pups were evaluated at 6-8 weeks of age to rule out acute drug effects. The NSF test began with a short term food restriction of 18 hours (water was still available). After the test, mice were given food ad libitum again. The NSF test is a “conflict” test, which assesses the competing motivations of the animal to explore (forage) for food versus remain in the safety of the periphery of the arena. Mice were placed into a white box with shavings on the floor and two food pellets placed on a circle of filter paper in the center of the arena. The latency to chew the food is the measure of anxiety. Measured times included time to reach the filter paper with the food pellet on it (“time to filter”), time to touch/smell the pellet (“time to pellet”), time to bite the pellet (“time to bite”) and time to sit and eat the pellet (“time to sit and eat”). […]

[3] = at birth; in utero exposure; cited from earlier work
[4] = tested on: mice; experiment: Colonic transit time (glass bead expulsion) in pups exposed during gestation and breastfeeding; type: in vivo; conditions: Piboserod given to mouse mothers during pregnancy and breastfeeding concomitantly with Fluoxetine; pups evaluated at 6-8 weeks; FIG. 2
Method: FIG. 2 is a bar graph showing colonic transit time (expressed as percentage of control). Maternal dams were administered either water (control), Fluoxetine (SSRI), or both Fluoxetine and Piboserod (SSRI+Pibo) from E1 through weaning from breastfeeding. Pups were thus exposed to aforementioned medications during gestation and breastfeeding. Once pups were weaned, at P21, they were not given any medications. Pups were evaluated at 6-8 weeks of age to rule out acute drug effects. Colonic transit time was measured by inserting a 2 mm glass bead 4 cm into the rectum and calculating the time it took for bead expulsion to occur.
as §1

[5] = tested on: mice; experiment: Total intestinal transit time (Rhodamine B bolus) in pups exposed during gestation and breastfeeding; type: in vivo; conditions: Piboserod given to mouse mothers during pregnancy and breastfeeding concomitantly with Fluoxetine; pups evaluated at 6-8 weeks; FIG. 1
Method: FIG. 1 is a bar graph showing total intestinal transit time (expressed as percentage of control). Maternal dams were administered either water (control), Fluoxetine (SSRI), or both Fluoxetine and Piboserod (SSRI+Pibo) from embryonic day 1 (E1) through weaning from breastfeeding. Pups were thus exposed to aforementioned medications during gestation and breastfeeding. Once pups were weaned, at postnatal day 21 (P21), they were not given any medications. Pups were then evaluated at 6-8 weeks of age to rule out acute drug effects. Total intestinal transit time was measured by administering a bolus of Rhodamine B (time 0) and calculating the amount of time until the rhodamine was found in the stool.
as §1

[6] = mice exposed to Fluoxetine in utero and during breastfeeding, evaluated at 6-8 weeks
[7] = mice exposed to Piboserod and Fluoxetine concomitantly in utero and during breastfeeding

Structure (SMILES) | levels of depression (sucrose preference test) [1, 6] | levels of anxiety (novelty-suppressed feeding) [2, 6] | plasma Fluoxetine levels in newborns, of maternal levels [3] | depression behavior (sucrose preference test) [1, 7] | colonic motility [4] | anxiety behavior (novelty-suppressed feeding) [2, 7] | total intestinal transit [5]
CNCCC(Oc1ccc(C(F)(F)F)cc1)c1ccccc1 (stereo not shown) [Fluoxetine] | increased levels | increased levels | approximately 70% |  |  |  | 
CCCCN1CCC(CNC(=O)c2c3n(c4ccccc24)CCCO3)CC1 [Piboserod] |  |  |  | behaviorally comparable to control mice | comparable with control mice | behaviorally comparable to control mice | comparable with control mice
